PubChem BioAssay (NCI)
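Values below derive from 48-hour exposures of cells grown in 96-well plates, with endpoints linearly interpolated between the two concentrations bracketing the appropriate inhibition level. TGI: concentration producing complete growth inhibition.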

Tests used:
Assay in all cases: DTP human tumour cell line panel, 48 h
OVCAR-4 ovarian = test system: OVCAR-4 ovarian
RPMI-8226 leukemia = test system: RPMI-8226 leukemia
HOP-92 NSCLC = test system: HOP-92 NSCLC
NCI-H23 lung = test system: NCI-H23 lung
SF-268 CNS = test system: SF-268 CNS
HCC-2998 colon = test system: HCC-2998 colon
SR leukemia = test system: SR leukemia
HCT-116 colon = test system: HCT-116 colon
SNB-75 CNS = test system: SNB-75 CNS
CCRF-CEM leukemia = test system: CCRF-CEM leukemia
UACC-257 melanoma = test system: UACC-257 melanoma
NCI/ADR-RES ovarian = test system: NCI/ADR-RES ovarian
HL-60(TB) leukemia = test system: HL-60(TB) leukemia
OVCAR-3 ovarian = test system: OVCAR-3 ovarian
COLO 205 colon = test system: COLO 205 colon
SK-OV-3 ovarian = test system: SK-OV-3 ovarian
ACHN renal = test system: ACHN renal
MDA-MB-231 breast = test system: MDA-MB-231 breast
A498 renal = test system: A498 renal
SK-MEL-28 melanoma = test system: SK-MEL-28 melanoma
HCT-15 colon = test system: HCT-15 colon
UACC-62 melanoma = test system: UACC-62 melanoma
HT29 colon = test system: HT29 colon
BT-549 breast = test system: BT-549 breast
KM12 colon = test system: KM12 colon
SK-MEL-2 melanoma = test system: SK-MEL-2 melanoma
SNB-19 CNS = test system: SNB-19 CNS
SF-539 CNS = test system: SF-539 CNS
LOX IMVI melanoma = test system: LOX IMVI melanoma
SK-MEL-5 melanoma = test system: SK-MEL-5 melanoma
U251 CNS = test system: U251 CNS
MALME-3M melanoma = test system: MALME-3M melanoma
OVCAR-8 ovarian = test system: OVCAR-8 ovarian
RXF 393 renal = test system: RXF 393 renal
TK-10 renal = test system: TK-10 renal
DU-145 prostate = test system: DU-145 prostate
EKVX NSCLC = test system: EKVX NSCLC
SF-295 CNS = test system: SF-295 CNS
NCI-H226 lung = test system: NCI-H226 lung
MDA-MB-435 = test system: MDA-MB-435
HS 578T breast = test system: HS 578T breast
M14 melanoma = test system: M14 melanoma
K-562 leukemia = test system: K-562 leukemia
MOLT-4 leukemia = test system: MOLT-4 leukemia
UO-31 renal = test system: UO-31 renal
CAKI-1 renal = test system: CAKI-1 renal
NCI-H460 lung = test system: NCI-H460 lung
786-0 renal = test system: 786-0 renal
SN12C renal = test system: SN12C renal
T-47D breast = test system: T-47D breast
MDA-N = test system: MDA-N
HOP-62 NSCLC = test system: HOP-62 NSCLC
IGROV1 ovarian = test system: IGROV1 ovarian
MCF7 breast = test system: MCF7 breast
NCI-H522 lung = test system: NCI-H522 lung
OVCAR-5 ovarian = test system: OVCAR-5 ovarian
A549 NSCLC = test system: A549 NSCLC
PC-3 prostate = test system: PC-3 prostate
SW-620 colon = test system: SW-620 colon

## CC(=O)Oc1c2ccsc2c(OC(C)=O)c2ccsc12
OVCAR-4 ovarian
  TGI: 1730 nM
RPMI-8226 leukemia
  TGI: > 28 µM
HOP-92 NSCLC
  TGI: 2750 nM
NCI-H23 lung
  TGI: 1050 nM
SF-268 CNS
  TGI: 5.81 µM
HCC-2998 colon
  TGI: 3.45 µM
SR leukemia
  TGI: 880 nM
HCT-116 colon
  TGI: 2210 nM
SNB-75 CNS
  TGI: 753 nM
CCRF-CEM leukemia
  TGI: > 21.4 µM
UACC-257 melanoma
  TGI: 400 nM
NCI/ADR-RES ovarian
  TGI: 1230 nM
HL-60(TB) leukemia
  TGI: > 26.5 µM
OVCAR-3 ovarian
  TGI: 6.54 µM
COLO 205 colon
  TGI: 3.38 µM
SK-OV-3 ovarian
  TGI: 9.93 µM
ACHN renal
  TGI: 2280 nM
MDA-MB-231 breast
  TGI: 6.17 µM
A498 renal
  TGI: 3.29 µM
SK-MEL-28 melanoma
  TGI: 1240 nM
HCT-15 colon
  TGI: 1740 nM
UACC-62 melanoma
  TGI: 3.3 µM
HT29 colon
  TGI: 4.45 µM
BT-549 breast
  TGI: 1860 nM
KM12 colon
  TGI: 3.24 µM
SK-MEL-2 melanoma
  TGI: 1980 nM
SNB-19 CNS
  TGI: 3.17 µM
SF-539 CNS
  TGI: 913 nM
LOX IMVI melanoma
  TGI: 357 nM
SK-MEL-5 melanoma
  TGI: 310 nM
U251 CNS
  TGI: 2450 nM
MALME-3M melanoma
  TGI: 889 nM
OVCAR-8 ovarian
  TGI: 1220 nM
RXF 393 renal
  TGI: 0.501 µM
TK-10 renal
  TGI: 4.2 µM
DU-145 prostate
  TGI: 833 nM
EKVX NSCLC
  TGI: 3.63 µM
SF-295 CNS
  TGI: 2410 nM
NCI-H226 lung
  TGI: 5.07 µM
MDA-MB-435
  TGI: 377 nM
HS 578T breast
  TGI: 951 nM
M14 melanoma
  TGI: 940 nM
K-562 leukemia
  TGI: > 100 µM
MOLT-4 leukemia
  TGI: 4.47 µM
UO-31 renal
  TGI: 2570 nM
CAKI-1 renal
  TGI: 3.66 µM
NCI-H460 lung
  TGI: 3.57 µM
786-0 renal
  TGI: 5.2 µM
SN12C renal
  TGI: 2030 nM
T-47D breast
  TGI: 4.09 µM
MDA-N
  TGI: 250 nM
HOP-62 NSCLC
  TGI: 4.4 µM
IGROV1 ovarian
  TGI: 3.5 µM
MCF7 breast
  TGI: 2310 nM
NCI-H522 lung
  TGI: 1.15 µM

## Oc1ccc2ccccc2c1C=NCc1c(O)ccc2ccccc12
OVCAR-4 ovarian
  TGI: > 100000 nM
RPMI-8226 leukemia
  TGI: > 100 µM
HOP-92 NSCLC
  TGI: > 100000 nM
NCI-H23 lung
  TGI: > 100000 nM
SF-268 CNS
  TGI: > 100 µM
HCC-2998 colon
  TGI: > 100 µM
SR leukemia
  TGI: > 100000 nM
HCT-116 colon
  TGI: > 100000 nM
SNB-75 CNS
  TGI: > 100000 nM
CCRF-CEM leukemia
  TGI: > 100 µM
UACC-257 melanoma
  TGI: > 100000 nM
NCI/ADR-RES ovarian
  TGI: > 100000 nM
OVCAR-5 ovarian
  TGI: > 100 µM
A549 NSCLC
  TGI: > 100 µM
OVCAR-3 ovarian
  TGI: > 100 µM
COLO 205 colon
  TGI: > 100 µM
SK-OV-3 ovarian
  TGI: > 100 µM
ACHN renal
  TGI: > 100000 nM
MDA-MB-231 breast
  TGI: > 100 µM
A498 renal
  TGI: 74.5 µM
SK-MEL-28 melanoma
  TGI: > 100000 nM
HCT-15 colon
  TGI: > 100000 nM
UACC-62 melanoma
  TGI: > 100 µM
HT29 colon
  TGI: > 100 µM
BT-549 breast
  TGI: > 100000 nM
KM12 colon
  TGI: > 100 µM
SK-MEL-2 melanoma
  TGI: > 100000 nM
PC-3 prostate
  TGI: > 100 µM
SNB-19 CNS
  TGI: > 100 µM
SF-539 CNS
  TGI: > 100000 nM
LOX IMVI melanoma
  TGI: > 100000 nM
SK-MEL-5 melanoma
  TGI: > 100000 nM
U251 CNS
  TGI: > 100000 nM
MALME-3M melanoma
  TGI: > 100000 nM
OVCAR-8 ovarian
  TGI: > 100000 nM
RXF 393 renal
  TGI: 9.34 µM
TK-10 renal
  TGI: > 100 µM
DU-145 prostate
  TGI: > 100000 nM
EKVX NSCLC
  TGI: 70.7 µM
SF-295 CNS
  TGI: > 100000 nM
MDA-MB-435
  TGI: > 100000 nM
HS 578T breast
  TGI: > 100000 nM
M14 melanoma
  TGI: > 100000 nM
SW-620 colon
  TGI: > 100 µM
K-562 leukemia
  TGI: > 100 µM
MOLT-4 leukemia
  TGI: > 100 µM
UO-31 renal
  TGI: > 100000 nM
CAKI-1 renal
  TGI: > 100 µM
NCI-H460 lung
  TGI: > 100 µM
786-0 renal
  TGI: > 100 µM
SN12C renal
  TGI: > 100000 nM
T-47D breast
  TGI: > 100 µM
MDA-N
  TGI: > 100000 nM
HOP-62 NSCLC
  TGI: > 100 µM
IGROV1 ovarian
  TGI: > 100 µM
MCF7 breast
  TGI: > 100000 nM
NCI-H522 lung
  TGI: 50.5 µM
